In patent US11691984B2, “Compounds and methods for DCAF-mediated protein degradation” (The Scripps Research Institute, priority 2018, dated 2023):

How the values were obtained:
[1] = biological target: T1, HA-DCAF16 and FLAG-FKBP12_NLS (Homo sapiens, UniProt P62942+Q9NXF7); test: Co-immunoprecipitation of HA-DCAF16 with FLAG-FKBP12_NLS (ternary complex) in HEK293T cells; assay type: cell-based; settings: 5 μM, MG132 10 μM, 2 hours
T1 construct: expressed in transfected cells; host or cells: HEK293T stably expressing FLAG-FKBP12_NLS, transiently transfected with HA-DCAF16 (pRK5)
Method: (§1) Cells were collected and lysed in 1% NP-40 lysis buffer (25 mM Tris-HCl pH 7.4, 150 mM NaCl, 10% glycerol, 1% Nonidet P-40) with complete protease inhibitor cocktail (Roche). Cells were vortexed and sonicated for 5 pulses (40%, 4). The supernatant was collected after centrifugation at 16,000 g for 10 min at 4° C. Protein concentration was determined by DC assay (Bio-Rad). Protein lysate was heated at 95° C. for 5 min in 1× Laemmli sample buffer. Proteins were resolved by 12% or 14% Novex Tris-Glycine Mini Gels (Invitrogen) and transferred to polyvinylidene fluoride (PVDF) membrane (0.2 Bio-Rad). The membrane was blocked with 5% BSA in TBST buffer (0.1% Tween 20, 20 mM Tris-HCl 7.6, 150 mM NaCl) at room temperature for 1 h. The antibody was diluted with fresh 5% BSA in TBST buffer (1:10000 dilution for FLAG, HA and β-Actin, 1:1000 dilution for others) and incubated with membrane (1 h room temperature for FLAG, HA and β-Actin, overnight 4° C. for others). Membrane was washed three times with TBST buffer and incubated with secondary antibody (1:5000 dilution in 5% BSA in TBST) at room temperature for 1 h. Membrane was washed three times with TBST buffer. The chemiluminescence signal in membrane was recorded after developing in ECL or ECL plus western blotting detection reagent using CL-XPosure film (Thermo Scientific). Relative band intensities were quantified using ImageJ.
Cells were collected and lysed in 1% NP-40 lysis buffer with complete protease inhibitor cocktail on ice for 10 min, followed by 5 pulses of sonication (40%, 4). After centrifugation at 16,000 g for 10 min at 4° C., the supernatant was collected. FLAG affinity gel (20 μL slurry per sample) was incubated with protein lysates at 4° C. for 1 h and washed four times with IP washing buffer. The affinity gel was heated at 95° C. for 10 min in 2× Laemmli sample buffer, followed by western blot analysis.

DCAF16 = biological target: T2, DCAF16 (Homo sapiens, UniProt Q9NXF7); test: LC-MS/MS detection of KB02-PEG0-SLF-modified tryptic peptides on DCAF16; assay type: binding; settings: HA-DCAF16-transfected HEK293T, 10 μM, 2 h
T2 construct: endogenously expressed DCAF16 in HEK293T cells; endogenous in cells; host or cells: HEK293T
Method: HEK293T cells were transfected with HA-DCAF16 plasmid by PEI transfection reagent for 24 h and treated with DMSO or 10 μM KB02-PEG0-SLF for 2 h. Cells were collected and lysed in 1% NP-40 lysis buffer with complete protease inhibitor cocktail. HA immunoprecipitation was performed with 10 mg of total protein lysates to purify HA-DCAF16. After washing the HA resin three times with IP washing buffer and once with PBS, HA-DCAF16 protein was eluted by heating at 65° C. for 10 min with 8M urea in PBS, then reduced with 12.5 mM DTT at 65° C. for 15 min and alkylated with 25 mM iodoacetamide at 37° C. for 30 min. The protein solution was diluted with PBS to 2M urea and digested with 2 μg trypsin at 37° C. for 6 h. Tryptic peptides were acidified with 5% formic acid and loaded onto a silica capillary column (250 μm) packed with 3 cm of C18 resin (Aqua 5 Phenomenex). Peptides were analyzed on LTQ-Orbitrap Elite mass spectrometer (Thermo Scientific) coupled with a Thermo UltiMate 3000 UHPLC system. Peptides were separated on a capillary column packed with 10 cm of C18 resin (Aqua 5 Phenomenex) and a 5 μm tip. The flow rate was 0.5 μL/min. […]

FLAG-FKBP12_NLS = FLAG-FKBP12_NLS (Homo sapiens, UniProt P62942); test: Western blot of stably expressed FLAG-FKBP12_NLS in MDA-MB-231 cells; assay type: cell-based; set-up: expressed in transfected cells; host or cells: HEK293T, MDA-MB-231 and HEK293 DCAF16+/+ and DCAF16-/- clones (lentiviral pCDH-CMV-MCS-EF1-Puro); settings: 1 μM, 8 hours
Method: FLAG-FKBP12 or FLAG-FKBP12_NLS lentivirus was generated by co-transfection of FLAG-FKBP12 or FLAG-FKBP12_NLS, pCMV-dR8.2 and pMD2.G into HEK 293T cells using FuGene 6 transfection reagent (Promega). Virus-containing medium were collected 48 h after transfection, filtered with […] filter, and used to transduce HEK293T and MDA-MB-231 cells in the presence of 10 μg/mL polybrene (Santa Cruz). 72 h after transduction, puromycin (2 μg/mL) was added to cells. HEK293T cells stably expressing FLAG-FKBP12 or FLAG-FKBP12_NLS were obtained after puromycin selection for 7 days. HEK293T cells stably expressing pCDH empty vector were generated in parallel as control.
as §1

T1 sequence (Q9NXF7 whole entry): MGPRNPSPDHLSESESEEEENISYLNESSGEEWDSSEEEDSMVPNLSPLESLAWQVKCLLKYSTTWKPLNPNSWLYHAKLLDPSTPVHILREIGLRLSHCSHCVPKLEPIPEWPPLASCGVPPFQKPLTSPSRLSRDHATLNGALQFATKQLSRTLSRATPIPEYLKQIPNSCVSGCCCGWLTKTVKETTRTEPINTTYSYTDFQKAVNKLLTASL
T1 sequence (P62942 2-108): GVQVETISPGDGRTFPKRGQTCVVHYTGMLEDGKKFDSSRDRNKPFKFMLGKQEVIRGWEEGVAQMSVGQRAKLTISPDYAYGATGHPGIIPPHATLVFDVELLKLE
T1 sequence (Q16531 whole entry partner): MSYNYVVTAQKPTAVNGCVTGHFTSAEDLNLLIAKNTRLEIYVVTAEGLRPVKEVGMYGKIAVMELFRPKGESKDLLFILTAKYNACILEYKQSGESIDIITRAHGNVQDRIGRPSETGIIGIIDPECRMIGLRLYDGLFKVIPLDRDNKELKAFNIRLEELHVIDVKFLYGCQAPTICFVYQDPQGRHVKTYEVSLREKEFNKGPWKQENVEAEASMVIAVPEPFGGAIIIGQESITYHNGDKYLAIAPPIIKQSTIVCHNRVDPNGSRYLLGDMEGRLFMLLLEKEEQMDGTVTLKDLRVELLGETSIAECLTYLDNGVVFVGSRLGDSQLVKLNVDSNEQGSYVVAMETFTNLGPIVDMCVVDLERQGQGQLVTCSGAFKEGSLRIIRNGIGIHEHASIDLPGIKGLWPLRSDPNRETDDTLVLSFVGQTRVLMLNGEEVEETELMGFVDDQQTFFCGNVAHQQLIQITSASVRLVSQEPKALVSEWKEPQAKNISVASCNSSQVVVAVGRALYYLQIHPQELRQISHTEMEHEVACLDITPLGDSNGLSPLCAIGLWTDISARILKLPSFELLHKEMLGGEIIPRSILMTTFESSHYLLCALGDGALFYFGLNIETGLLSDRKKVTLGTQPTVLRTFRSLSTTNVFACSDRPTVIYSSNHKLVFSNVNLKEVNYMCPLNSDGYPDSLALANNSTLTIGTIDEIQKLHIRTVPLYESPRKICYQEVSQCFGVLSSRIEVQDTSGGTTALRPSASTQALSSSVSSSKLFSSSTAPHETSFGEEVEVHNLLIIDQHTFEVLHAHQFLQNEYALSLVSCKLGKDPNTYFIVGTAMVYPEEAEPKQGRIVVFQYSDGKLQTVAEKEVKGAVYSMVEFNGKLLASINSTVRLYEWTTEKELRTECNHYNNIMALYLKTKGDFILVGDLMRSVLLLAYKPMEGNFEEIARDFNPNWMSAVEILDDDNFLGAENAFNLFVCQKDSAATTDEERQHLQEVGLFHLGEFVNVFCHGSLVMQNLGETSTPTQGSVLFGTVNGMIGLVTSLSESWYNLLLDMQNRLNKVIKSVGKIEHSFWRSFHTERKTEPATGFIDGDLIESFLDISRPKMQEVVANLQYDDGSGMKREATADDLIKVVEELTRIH
T2 sequence (Q9NXF7 whole entry): as the sequence (Q9NXF7 whole entry) above
FLAG-FKBP12_NLS, sequence (P62942 whole entry): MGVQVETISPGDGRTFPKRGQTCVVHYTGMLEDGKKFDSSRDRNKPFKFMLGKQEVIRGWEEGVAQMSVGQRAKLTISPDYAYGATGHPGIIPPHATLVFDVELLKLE

co-immunoprecipitation of HA-DCAF16 with FLAG-FKBP12_NLS [1]: co-immunoprecipitated with HA-DCAF16
Structure (SMILES): CCC(C)(C)C(=O)C(=O)N1CCCC[C@H]1C(=O)O[C@H](CCc1ccc(OC)c(OC)c1)c1cccc(NC(=O)COc2ccc3c(c2)CCCN3C(=O)CCl)c1 [KB02-PEG0-SLF, (R)-1-(3-(2-((1-(2-chloroacetyl)-1,2,3,4-tetrahydroquinolin-6-yl)oxy)acetamido)phenyl)-3-(3,4-dimethoxyphenyl)propyl (5)-1-(3,3-dimethyl-2-oxopentanoyl)piperidine-2-carboxylate]
modified DCAF16 tryptic peptide identified (DCAF16): tryptic peptide (aa 168-184) containing C173 and C177-179
degradation of FLAG-FKBP12_NLS in MDA-MB-231 cells (FLAG-FKBP12_NLS): degradation of stably expressed FLAG-FKBP12_NLS
